For one compound, nephropathy class and glomerular involvement results are on record in publication PMC12461739, “Multi-targeted azacoumarin–cyanocinnamate hybrids induce G2/M arrest and apoptosis via tubulin, and COX-2/VEGFR modulation: insights from in vitro mechanistic basis and in vivo validation” (RSC Medicinal Chemistry, 2025).

SMILES strings stand for the structures.

The assay in a line: Kidney histopathology (H&E). Particulars: compound 7 + EAC.

Description: Additionally, liver and kidney tissues were excised from each animal for further evaluation. […] The second portion was fixed in 10% neutral buffered formalin for histopathological examination to assess tissue morphology and damage.[96,97]
Liver and kidney tissues were collected from all experimental groups at the end of the study and immediately fixed in 10% neutral buffered formalin. After fixation, the samples were dehydrated, embedded in paraffin, and sectioned at a thickness of 5 μm using a rotary microtome. […] Histopathological examination of renal tissue focused on identifying acute tubular injury (ATI), characterized by tubular epithelial cell flattening, necrosis, apical vacuolization, and loss of the brush border. These features were assessed using a semi-quantitative scoring system.[110] Hepatic tissue sections were evaluated for the severity of hepatocellular injury using a modified Brunt grading system, which includes assessment of hepatocyte ballooning, necrosis, inflammation, and other degenerative changes.

Consider `CCOC(=O)/C(C#N)=C/c1ccc(Oc2c(C)c3cc(Br)c(O)c(Br)c3[nH]c2=O)cc1` [Compound 7, ethyl (E)-2-cyano-3-(4-((6,8-dibromo-7-hydroxy-4-methyl-2-oxo-1,2-dihydroquinolin-3-yl)oxy)phenyl)acrylate], for which the nephropathy class result is on record as “class II”. Further, the glomerular involvement (EAC group approximately 25%) was 15%.
